We go through one compound from paper PMC12559910, “A New N6‐Methyladenosine Inhibitor, Celastrol, Alleviates Rheumatoid Arthritis via Targeting IGF2BP3” (MedComm, 2025).

Each structure is given as a SMILES string.

The assay deals with T1, recombinant IGF2BP3 protein (Homo sapiens, UniProt O00425).
T1 construct: recombinant, amine-coupled to CM5 chip
As to the kind of experiment: SPR (Biacore T200, CM5 chip, steady-state fit). It counts as binding.

T1 sequence (O00425 whole entry): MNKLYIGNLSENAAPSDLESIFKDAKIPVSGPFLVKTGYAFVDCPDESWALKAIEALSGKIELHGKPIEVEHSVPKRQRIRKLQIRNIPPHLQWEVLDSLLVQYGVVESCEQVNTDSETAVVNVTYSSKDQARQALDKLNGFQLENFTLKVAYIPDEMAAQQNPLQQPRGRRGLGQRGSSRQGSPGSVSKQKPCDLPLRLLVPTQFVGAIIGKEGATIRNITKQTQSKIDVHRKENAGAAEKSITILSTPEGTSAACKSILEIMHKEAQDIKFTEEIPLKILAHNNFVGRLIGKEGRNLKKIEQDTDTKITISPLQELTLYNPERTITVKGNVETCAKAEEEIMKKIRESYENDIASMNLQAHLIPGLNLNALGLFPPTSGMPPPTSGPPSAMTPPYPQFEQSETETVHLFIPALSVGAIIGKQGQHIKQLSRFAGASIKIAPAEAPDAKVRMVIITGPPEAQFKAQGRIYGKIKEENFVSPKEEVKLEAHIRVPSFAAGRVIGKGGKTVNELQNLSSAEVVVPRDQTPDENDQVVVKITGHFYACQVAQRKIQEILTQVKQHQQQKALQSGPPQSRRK

Consider `CC1=C(O)C(=O)C=C2C1=CC=C1[C@@]2(C)CC[C@@]2(C)[C@@H]3C[C@](C)(C(=O)O)CC[C@]3(C)CC[C@]12C` [celastrol], for which the Kd (in general, a measure of binding affinity in units of concentration) came out at 1650 nM.
